# Measured values taken from patent US20040067507A1, “Liver inflammation predictive genes” (priority 2002, published 2004).
# Read-outs that look alike come from different tables or passages of the source.
# Test system: Sprague Dawley rats Crl:CD
# Assay type: in vivo, rat
# Source text: In addition to the database described and utilized herein, other toxicology gene expression databases may be generated, and used to identify additional liver toxicity biomarkers, which may also be employed in the practice of the liver inflammation prediction methods of the invention. […] An example of compounds, dose levels, liver toxicity classifications and histopathology scores used in the Examples which follow are provided in Table 1. The compounds and dose levels are abbreviated in the Abbreviation Column. The Inflammation Score relates the histopathology liver inflammation, a score of “2” or higher indicates histopathology of increasing severity.
# Identification of Correlating Genes: For the purpose of identifying candidate predictive genes, the database preferably includes histopathology scores for each animal which has been exposed to one or more agent(s). […] The scores are numerical scores that reflect the occurrence and severity of histopathological changes. These scores can be adjusted to have similar range to gene expression changes. […] Because the scores are numerical, they are suitable for use with a variety of statistical correlation and similarity measures.
# Sprague Dawley rats Crl:CD from Charles River, Raleigh, N.C. were divided into treated rats that receive a specific concentration of the compound (see Table 1) and the control rats that only received the vehicle in which the compound is mixed (e.g., saline).
# At specified timepoints (6 h, 24 h and 72 h) after administration (intraperitoneal route) of the compound, a set number of rats (usually 3 control and 3 treated) were euthanized and tissues collected. Each rat was heavily sedated with an overdose of CO2 by inhalation and a maximum amount of blood drawn. Exsanguination of the rat by this drawing of blood kills the rat. The method of collecting the tissues is very important and ensures preserving the quality of the mRNA in the tissues. The body of the rat was then opened up and prosectors rapidly removed the tissues (including liver) and immediately placed them into liquid nitrogen. […] The organs/tissues were then packaged into well-labeled plastic freezer quality bags and stored at −80 degrees until needed for isolation of the mRNA from a portion of the organ/tissue sample.
# Correlation with Histopathology Scores: Histopathology scores for each animal (assigned on a compound-dose basis as indicated in Table 1) were entered with gene expression data by using the GeneSpring™ ‘Drawn Gene’ function. Correlations between inflammation histopathology scores and gene expression were conducted with the distance measures listed below: […]
# [1] = 40 mg/kg i.p., 72 h, 1=no histopathology, 2 or higher=increasing severity
# [2] = 160 mg/kg i.p., 72 h, 1=no histopathology, 2 or higher=increasing severity
# [3] = 0.1 mg/kg i.p., 72 h, 1=no histopathology, 2 or higher=increasing severity
# [4] = 0.4 mg/kg i.p., 72 h, 1=no histopathology, 2 or higher=increasing severity
# [5] = Sprague Dawley Crl:CD, rat, in vivo, ip
# [6] = 50 mg/kg i.p., 72 h, 1=no histopathology, 2 or higher=increasing severity
# [7] = 200 mg/kg i.p., 72 h, 1=no histopathology, 2 or higher=increasing severity
# [8] = 250 mg/kg i.p., 72 h, 1=no histopathology, 2 or higher=increasing severity
# [9] = 1000 mg/kg i.p., 72 h, 1=no histopathology, 2 or higher=increasing severity
# [10] = Sprague Dawley Crl:CD, rat, in vivo
# [11] = 1.3 mg/kg i.p., 72 h, 1=no histopathology, 2 or higher=increasing severity
# [12] = 5 mg/kg i.p., 72 h, 1=no histopathology, 2 or higher=increasing severity
# [13] = 20 mg/kg i.p., 72 h, 1=no histopathology, 2 or higher=increasing severity
# [14] = 80 mg/kg i.p., 72 h, 1=no histopathology, 2 or higher=increasing severity
# [15] = 38 mg/kg i.p., 72 h, 1=no histopathology, 2 or higher=increasing severity
# [16] = 150 mg/kg i.p., 72 h, 1=no histopathology, 2 or higher=increasing severity
# [17] = 25 mg/kg i.p., 72 h, 1=no histopathology, 2 or higher=increasing severity
# [18] = 100 mg/kg i.p., 72 h, 1=no histopathology, 2 or higher=increasing severity
# [19] = 2 mg/kg i.p., 72 h, 1=no histopathology, 2 or higher=increasing severity
# [20] = 8 mg/kg i.p., 72 h, 1=no histopathology, 2 or higher=increasing severity
compound,measurement,setting,value
CCC(=O)O[C@H]1[C@H](O[C@@H]2[C@@H](C)[C@H](O[C@H]3C[C@@](C)(OC)[C@@H](O)[C@H](C)O3)[C@@H](C)C(=O)O[C@H](CC)[C@@](C)(O)[C@H](O)[C@@H](C)C(=O)[C@H](C)C[C@@]2(C)O)O[C@H](C)C[C@@H]1N(C)C [erythromycin estolate],Liver Inflammation,"40 mg/kg i.p., 72 h",no
same,Liver Necrosis,"40 mg/kg i.p., 72 h",no
same,Inflamm. Score,[1],1
same,Necr. Score,[1],1
same,Liver Inflammation,"160 mg/kg i.p., 72 h",no
same,Liver Necrosis,"160 mg/kg i.p., 72 h",no
same,Inflamm. Score,[2],1
same,Necr. Score,[2],1
C[C@]12CC[C@@H]3c4ccc(O)cc4CC[C@H]3[C@@H]1CC[C@@H]2O [estradiol],Liver Inflammation,"0.1 mg/kg i.p., 72 h",no
same,Liver Necrosis,"0.1 mg/kg i.p., 72 h",no
same,Inflamm. Score,[3],1
same,Necr. Score,[3],1
same,Liver Inflammation,"0.4 mg/kg i.p., 72 h",no
same,Liver Necrosis,"0.4 mg/kg i.p., 72 h",no
same,Inflamm. Score,[4],1
same,Necr. Score,[4],1
CCO [ethanol],Inflamm. Score,[5],1
same,Necr. Score,[5],1
same,Liver Inflammation,"rat, in vivo, ip",no
same,Liver Necrosis,"rat, in vivo, ip",no
Nc1nc(O)c2ncn(COC(CO)CO)c2n1 [gancyclovir],Liver Inflammation,"50 mg/kg i.p., 72 h",no
same,Liver Necrosis,"50 mg/kg i.p., 72 h",no
same,Inflamm. Score,[6],1
same,Necr. Score,[6],1
same,Liver Inflammation,"200 mg/kg i.p., 72 h",no
same,Liver Necrosis,"200 mg/kg i.p., 72 h",no
same,Inflamm. Score,[7],1
same,Necr. Score,[7],1
NC(=O)NO [hydroxyurea],Liver Inflammation,"250 mg/kg i.p., 72 h",no
same,Liver Necrosis,"250 mg/kg i.p., 72 h",no
same,Inflamm. Score,[8],1
same,Necr. Score,[8],1
same,Liver Inflammation,"1000 mg/kg i.p., 72 h",no
same,Liver Necrosis,"1000 mg/kg i.p., 72 h",no
same,Inflamm. Score,[9],1
same,Necr. Score,[9],1
NNC(=O)c1ccncc1 [isoniazid],Liver Inflammation,"50 mg/kg i.p., 72 h",no
same,Liver Necrosis,"50 mg/kg i.p., 72 h",no
same,Inflamm. Score,[6],1
same,Necr. Score,[6],1
same,Liver Inflammation,"200 mg/kg i.p., 72 h",no
same,Liver Necrosis,"200 mg/kg i.p., 72 h",no
same,Inflamm. Score,[7],1
same,Necr. Score,[7],1
CC(=O)N1CCN(c2ccc(OCC3COC(Cn4ccnc4)(c4ccc(Cl)cc4Cl)O3)cc2)CC1 (stereo not drawn) [ketoconazole],Inflamm. Score,[10],1
same,Necr. Score,[10],1
same,Liver Inflammation,"rat, in vivo",no
same,Liver Necrosis,"rat, in vivo",no
CN(Cc1cnc2nc(N)nc(N)c2n1)c1ccc(C(=O)N[C@@H](CCC(=O)O)C(=O)O)cc1 [methotrexate],Liver Inflammation,"1.3 mg/kg i.p., 72 h",no
same,Liver Necrosis,"1.3 mg/kg i.p., 72 h",no
same,Inflamm. Score,[11],1
same,Necr. Score,[11],1
same,Liver Inflammation,"5 mg/kg i.p., 72 h",no
same,Liver Necrosis,"5 mg/kg i.p., 72 h",no
same,Inflamm. Score,[12],1
same,Necr. Score,[12],1
C=CCN1CC[C@]23c4c5ccc(O)c4O[C@H]2C(=O)CC[C@@]3(O)[C@H]1C5 [naloxone],Inflamm. Score,[10],1
same,Necr. Score,[10],1
same,Inflamm. Score,[5],1
same,Necr. Score,[5],1
same,Liver Inflammation,"rat, in vivo",no
same,Liver Necrosis,"rat, in vivo",no
same,Liver Inflammation,"rat, in vivo, ip",no
same,Liver Necrosis,"rat, in vivo, ip",no
CCC1(c2ccccc2)C(=O)NC(=O)NC1=O [phenobarbital],Liver Inflammation,"20 mg/kg i.p., 72 h",no
same,Liver Necrosis,"20 mg/kg i.p., 72 h",no
same,Inflamm. Score,[13],1
same,Necr. Score,[13],1
same,Liver Inflammation,"80 mg/kg i.p., 72 h",no
same,Liver Necrosis,"80 mg/kg i.p., 72 h",no
same,Inflamm. Score,[14],1
same,Necr. Score,[14],1
NNc1ccccc1 [phenylhydrazine],Liver Inflammation,"20 mg/kg i.p., 72 h",no
same,Liver Necrosis,"20 mg/kg i.p., 72 h",no
same,Inflamm. Score,[13],1
same,Necr. Score,[13],1
same,Liver Inflammation,"80 mg/kg i.p., 72 h",no
same,Liver Necrosis,"80 mg/kg i.p., 72 h",no
same,Inflamm. Score,[14],1
same,Necr. Score,[14],1
COc1ccc(C[C@H](N)C(=O)N[C@H]2[C@@H](O)[C@H](n3cnc4c(N(C)C)ncnc43)O[C@@H]2CO)cc1 [puromycin],Liver Inflammation,"38 mg/kg i.p., 72 h",no
same,Liver Necrosis,"38 mg/kg i.p., 72 h",no
same,Inflamm. Score,[15],1
same,Necr. Score,[15],1
same,Liver Inflammation,"150 mg/kg i.p., 72 h",no
same,Liver Necrosis,"150 mg/kg i.p., 72 h",no
same,Inflamm. Score,[16],1
same,Necr. Score,[16],1
C=C[C@H]1C[N@@]2CC[C@H]1C[C@@H]2[C@@H](O)c1ccnc2ccc(OC)cc12 [quinidine],Liver Inflammation,"25 mg/kg i.p., 72 h",no
same,Liver Necrosis,"25 mg/kg i.p., 72 h",no
same,Inflamm. Score,[17],1
same,Necr. Score,[17],1
same,Liver Inflammation,"100 mg/kg i.p., 72 h",no
same,Liver Necrosis,"100 mg/kg i.p., 72 h",no
same,Inflamm. Score,[18],1
same,Necr. Score,[18],1
CN(C)[C@@H]1C(O)=C(C(N)=O)C(=O)[C@@]2(O)C(O)=C3C(=O)c4c(O)cccc4[C@@](C)(O)[C@H]3C[C@@H]12 [tetracycline],Inflamm. Score,[10],1
same,Liver Inflammation,"rat, in vivo",no
Cn1c(=O)c2[nH]cnc2n(C)c1=O [theophylline],Inflamm. Score,[10],1
same,Necr. Score,[10],1
same,Liver Inflammation,"rat, in vivo",no
same,Liver Necrosis,"rat, in vivo",no
gentamicin,Liver Inflammation,"38 mg/kg i.p., 72 h",no
same,Liver Necrosis,"38 mg/kg i.p., 72 h",no
same,Inflamm. Score,[15],1
same,Necr. Score,[15],1
same,Liver Inflammation,"150 mg/kg i.p., 72 h",no
same,Liver Necrosis,"150 mg/kg i.p., 72 h",no
same,Inflamm. Score,[16],1
same,Necr. Score,[16],1
lipopolysaccharide,Liver Inflammation,"2 mg/kg i.p., 72 h",no
same,Liver Necrosis,"2 mg/kg i.p., 72 h",no
same,Inflamm. Score,[19],1
same,Necr. Score,[19],1
same,Liver Inflammation,"8 mg/kg i.p., 72 h",yes
same,Liver Necrosis,"8 mg/kg i.p., 72 h",yes
same,Inflamm. Score,[20],2
same,Necr. Score,[20],6
same,liver necrosis or necrosis with inflammation,high dose,produced liver necrosis or necrosis with inflammation
same,liver necrosis or necrosis with inflammation,low dose,not at the low dose
